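Test compounds were applied to cells in 96-well plates for 48 hours at 5 doses. Definition used: TGI = concentration required for complete inhibition of growth.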
Experiments:
Assay in all cases: NCI tumour cell line growth inhibition, 48 h
[1] = system: ACHN renal
[2] = system: DU-145 prostate
[3] = system: HCT-116 colon
[4] = system: LOX IMVI melanoma
[5] = system: OVCAR-8 ovarian
[6] = system: NCI/ADR-RES ovarian
[7] = system: NCI-H226 lung
[8] = system: MDA-MB-435
[9] = system: MOLT-4 leukemia
[10] = system: RXF 393 renal
[11] = system: NCI-H23 lung
[12] = system: MDA-MB-231 breast
[13] = system: SN12C renal
[14] = system: A498 renal
[15] = system: T-47D breast
[16] = system: OVCAR-3 ovarian
[17] = system: SF-268 CNS
[18] = system: NCI-H522 lung
[19] = system: U251 CNS
[20] = system: OVCAR-4 ovarian
[21] = system: SF-295 CNS
[22] = system: HCC-2998 colon
[23] = system: SK-OV-3 ovarian
[24] = system: HCT-15 colon
[25] = system: MALME-3M melanoma
[26] = system: SNB-19 CNS
[27] = system: HS 578T breast
[28] = system: MCF7 breast
[29] = system: SF-539 CNS
[30] = system: RPMI-8226 leukemia
[31] = system: HOP-62 NSCLC
[32] = system: SK-MEL-28 melanoma
[33] = system: IGROV1 ovarian
[34] = system: A549 NSCLC
[35] = system: SR leukemia
[36] = system: SNB-75 CNS
[37] = system: M14 melanoma
[38] = system: HT29 colon
[39] = system: TK-10 renal
[40] = system: KM12 colon
[41] = system: UACC-62 melanoma
[42] = system: EKVX NSCLC
[43] = system: 786-0 renal
[44] = system: NCI-H460 lung
[45] = system: SW-620 colon
[46] = system: UACC-257 melanoma
[47] = system: OVCAR-5 ovarian
[48] = system: MDA-N
[49] = system: SK-MEL-5 melanoma
[50] = system: CAKI-1 renal
[51] = system: K-562 leukemia
[52] = system: COLO 205 colon
[53] = system: SK-MEL-2 melanoma
[54] = system: PC-3 prostate
[55] = system: UO-31 renal
[56] = system: CCRF-CEM leukemia
[57] = system: HL-60(TB) leukemia
[58] = system: HOP-92 NSCLC
[59] = system: BT-549 breast

`CCOC(=O)/C(=C\c1c(C)[nH]c2ccccc12)P(=O)(OCC)OCC` was tested, and the TGI [1] was > 100 µM, the TGI [2] was > 100 µM and the TGI [3] was > 100 µM. The TGI [4] was > 100 µM, the TGI [5] was > 100 µM and the TGI [6] was > 100 µM. The TGI [7] was > 100 µM, the TGI [8] was > 100 µM and the TGI [9] was > 100 µM. For the same compound, the TGI [10] was > 100 µM, the TGI [11] was > 100 µM and the TGI [12] was > 100 µM. For the same compound, the TGI [13] was > 100 µM, the TGI [14] was > 100 µM and the TGI [15] was > 100 µM. The TGI [16] was > 100 µM, the TGI [17] was > 100 µM and the TGI [18] was > 100 µM. The TGI [19] was > 100 µM, the TGI [20] was > 100 µM and the TGI [21] was > 100 µM. The TGI [22] was > 100 µM, the TGI [23] was > 100 µM and the TGI [24] was > 100 µM. The TGI [25] was > 100 µM, the TGI [26] was > 100 µM and the TGI [27] was > 100 µM. The TGI [28] was > 100 µM, the TGI [29] was > 100 µM and the TGI [30] was > 100 µM. The TGI [31] was > 100 µM, the TGI [32] was > 100 µM and the TGI [33] was > 100 µM. The TGI [34] was > 100 µM, the TGI [35] was > 100 µM and the TGI [36] was > 100 µM. For the same compound, the TGI [37] was > 100 µM, the TGI [38] was > 100 µM and the TGI [39] was > 100 µM. The TGI [40] was > 100 µM, the TGI [41] was > 100 µM and the TGI [42] was > 100 µM. The TGI [43] was > 100 µM, the TGI [44] was > 100 µM and the TGI [45] was > 100 µM. The TGI [46] was > 100 µM, the TGI [47] was > 100 µM and the TGI [48] was > 100 µM. The TGI [49] was > 100 µM, the TGI [50] was > 100 µM and the TGI [51] was > 100 µM. For the same compound, the TGI [52] was > 100 µM.

For `CC[C@]1(Cc2ccc(OC)c(OC)c2)C=[N+]([O-])O[C@H](OCc2ccccc2)[C@@H]1OC(C)=O`, the TGI [1] was > 100 µM, the TGI [2] was 93.5 µM and the TGI [4] was 39.5 µM. The TGI [5] was > 100 µM, the TGI [6] was > 100 µM and the TGI [7] was 53.8 µM. The TGI [8] was > 100 µM, the TGI [9] was 27.3 µM and the TGI [10] was 55.4 µM. The TGI [11] was > 100 µM, the TGI [12] was > 100 µM and the TGI [14] was > 100 µM. For the same compound, the TGI [15] was > 100 µM, the TGI [16] was 42.5 µM and the TGI [17] was 70.9 µM. For the same compound, the TGI [18] was 28.5 µM, the TGI [19] was > 100 µM and the TGI [20] was 95.6 µM. For the same compound, the TGI [21] was > 100 µM, the TGI [22] was > 100 µM and the TGI [23] was > 100 µM. For the same compound, the TGI [24] was > 100 µM, the TGI [25] was 52.9 µM and the TGI [26] was > 100 µM. The TGI [27] was 60.5 µM, the TGI [28] was > 100 µM and the TGI [30] was 57.9 µM. The TGI [31] was > 100 µM, the TGI [32] was 84.6 µM and the TGI [33] was > 100 µM. For the same compound, the TGI [53] was 79.3 µM, the TGI [34] was > 100 µM and the TGI [35] was 48.2 µM. The TGI [36] was > 100 µM, the TGI [37] was > 100 µM and the TGI [38] was 79.9 µM. For the same compound, the TGI [54] was 64.3 µM, the TGI [39] was > 100 µM and the TGI [40] was 58.8 µM. The TGI [55] was > 100 µM, the TGI [56] was 55.6 µM and the TGI [57] was 36.3 µM. For the same compound, the TGI [58] was 77.3 µM, the TGI [41] was > 100 µM and the TGI [42] was 67.5 µM. For the same compound, the TGI [43] was > 100 µM, the TGI [44] was > 100 µM and the TGI [45] was > 100 µM. For the same compound, the TGI [46] was > 100 µM, the TGI [47] was > 100 µM and the TGI [48] was > 100 µM. For the same compound, the TGI [49] was > 100 µM, the TGI [50] was 80.9 µM and the TGI [51] was 56.8 µM. It also gave a TGI [52] of 34.5 µM.

Work on `CC(C)(C)OC(=O)C1/C(=C/CBr)CN1C(=O)OC(C)(C)C` (stereo unspecified) yielded a TGI [1] of 33 µM, a TGI [3] of 26.7 µM and a TGI [4] of 11.4 µM. The TGI [5] was 44.2 µM, the TGI [6] was 72.1 µM and the TGI [8] was 29.7 µM. The TGI [9] was 26.1 µM, the TGI [11] was 28.8 µM and the TGI [13] was 27 µM. The TGI [14] was 31.8 µM, the TGI [16] was 28.6 µM and the TGI [17] was 21.2 µM. The TGI [20] was 7.79 µM, the TGI [21] was 30.5 µM and the TGI [22] was 33.1 µM. For the same compound, the TGI [23] was 38.2 µM, the TGI [24] was 23.3 µM and the TGI [25] was 35.4 µM. The TGI [26] was 32.5 µM, the TGI [27] was 49.1 µM and the TGI [28] was 28.9 µM. It also gave a TGI [29] of 35.9 µM, a TGI [30] of 18.1 µM and a TGI [31] of 31.9 µM. For the same compound, the TGI [32] was 46.9 µM, the TGI [33] was 26.2 µM and the TGI [34] was 38 µM. For the same compound, the TGI [37] was 41.9 µM, the TGI [38] was > 100 µM and the TGI [54] was 28.1 µM. For the same compound, the TGI [39] was 31.3 µM, the TGI [55] was 33.1 µM and the TGI [56] was 6.22 µM. The TGI [57] was 7.5 µM, the TGI [58] was 31.8 µM and the TGI [41] was 33.4 µM. The TGI [42] was 37.3 µM, the TGI [59] was 36.2 µM and the TGI [43] was 23.2 µM. The TGI [44] was 34.9 µM, the TGI [45] was 19.4 µM and the TGI [46] was 32.3 µM. The TGI [47] was 35.2 µM, the TGI [48] was 29.7 µM and the TGI [49] was 27.4 µM. For the same compound, the TGI [50] was 30.5 µM, the TGI [51] was 7.54 µM and the TGI [52] was 6.1 µM.

`C[C@]12CC[C@H](O)CC1=CC[C@@H]1[C@@H]2CC[C@]2(C)NC(=O)/C(=C\c3ccccc3)C[C@@H]12` gave a TGI [1] of 43.1 µM, a TGI [2] of 33.5 µM and a TGI [3] of 37 µM. The TGI [4] was 42.5 µM, the TGI [5] was 47.6 µM and the TGI [6] was 53 µM. It also gave a TGI [7] of 34.3 µM, a TGI [8] of 37.8 µM and a TGI [9] of 98.5 µM. The TGI [10] was 27.9 µM, the TGI [11] was 40.7 µM and the TGI [12] was 38.9 µM. The TGI [13] was 66 µM, the TGI [14] was 29.2 µM and the TGI [15] was 47 µM. For the same compound, the TGI [16] was 26.2 µM, the TGI [17] was 30.7 µM and the TGI [18] was 23.1 µM. For the same compound, the TGI [19] was 30.3 µM, the TGI [20] was 60.8 µM and the TGI [21] was 33.2 µM. For the same compound, the TGI [22] was 30.7 µM, the TGI [23] was 35.5 µM and the TGI [24] was 37.8 µM. The TGI [25] was 30.3 µM, the TGI [26] was 27.8 µM and the TGI [28] was 47.3 µM. For the same compound, the TGI [29] was 30.2 µM, the TGI [30] was 56 µM and the TGI [31] was 29 µM. For the same compound, the TGI [32] was 32 µM, the TGI [33] was 33.8 µM and the TGI [53] was 31.8 µM. The TGI [34] was 33.4 µM, the TGI [35] was > 100 µM and the TGI [36] was 48.5 µM. The TGI [37] was 29.2 µM, the TGI [38] was 31.5 µM and the TGI [54] was 29.5 µM. It also gave a TGI [39] of 83.2 µM, a TGI [40] of 30.3 µM and a TGI [55] of 25.8 µM. It also gave a TGI [56] of 48.5 µM, a TGI [41] of 38.6 µM and a TGI [42] of 28.4 µM. For the same compound, the TGI [59] was 32.7 µM, the TGI [43] was 52 µM and the TGI [44] was 68.9 µM. The TGI [45] was 34.6 µM, the TGI [46] was 48.6 µM and the TGI [47] was 27.9 µM. For the same compound, the TGI [48] was 69.8 µM, the TGI [49] was 25.7 µM and the TGI [50] was 73.1 µM. The TGI [51] was > 100 µM and the TGI [52] was 31.9 µM.
